What was measured:
Experiment in all cases: Stopped-Flow kinetic assay, carbonic anhydrase inhibition
CA I = CA I (Homo sapiens, UniProt P00915)
Method: (§1) All hybrid compounds and individual CAI moieties with OH/SH group were tested for inhibition of off-target isoforms CA I and II and CAI IV, IX and XII by a Stopped-Flow kinetic assay.

CA IV = CA IV (Homo sapiens, UniProt P22748)
Method: as §1

CA II = CA II (Homo sapiens, UniProt P00918)
Method: as §1

CA IX = CA IX (Homo sapiens, UniProt Q16790)
Method: as §1

CA XII = CA XII (Homo sapiens, UniProt O43570)
Sequence of CA XII (O43570 25-354): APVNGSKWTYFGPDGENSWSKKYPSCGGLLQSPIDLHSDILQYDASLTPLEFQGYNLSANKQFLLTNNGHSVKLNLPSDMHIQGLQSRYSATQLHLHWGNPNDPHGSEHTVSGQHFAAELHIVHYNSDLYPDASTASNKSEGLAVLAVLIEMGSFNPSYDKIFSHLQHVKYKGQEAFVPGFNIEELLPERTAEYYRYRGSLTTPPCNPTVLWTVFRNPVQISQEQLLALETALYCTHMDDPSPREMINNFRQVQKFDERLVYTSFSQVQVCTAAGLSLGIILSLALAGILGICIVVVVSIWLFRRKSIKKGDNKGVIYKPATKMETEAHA
Method: as §1

Sequence of CA I (P00915 whole entry): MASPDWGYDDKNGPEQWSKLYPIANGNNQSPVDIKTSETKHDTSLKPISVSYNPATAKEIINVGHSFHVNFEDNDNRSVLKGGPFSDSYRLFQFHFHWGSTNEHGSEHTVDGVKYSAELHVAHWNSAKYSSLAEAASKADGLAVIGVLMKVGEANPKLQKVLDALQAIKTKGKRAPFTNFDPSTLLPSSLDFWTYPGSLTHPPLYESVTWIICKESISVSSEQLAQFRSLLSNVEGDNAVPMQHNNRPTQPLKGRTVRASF
Sequence of CA IV (P22748 19-284): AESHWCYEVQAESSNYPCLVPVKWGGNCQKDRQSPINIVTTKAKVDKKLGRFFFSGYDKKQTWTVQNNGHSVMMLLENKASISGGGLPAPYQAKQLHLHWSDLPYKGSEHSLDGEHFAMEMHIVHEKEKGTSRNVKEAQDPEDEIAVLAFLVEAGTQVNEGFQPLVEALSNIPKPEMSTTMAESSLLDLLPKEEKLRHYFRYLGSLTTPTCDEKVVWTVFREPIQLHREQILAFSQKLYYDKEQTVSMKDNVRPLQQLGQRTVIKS

| Ki (CA I) [nM] | Ki (CA IV) [nM] | Ki (CA II) [nM] | Ki (CA IX) [nM] | Ki (CA XII) [nM] | Compound |
| --- | --- | --- | --- | --- | --- |
| > 10000 | 14.4 | > 10000 | 79.2 | 53 | Cc1c(OCC(F)(F)F)ccnc1C[S+]([O-])c1nc2ccccc2n1C(=O)OCCOc1ccc2oc(=O)ccc2c1 (stereo not shown) [Compound A1, 2-((2-Osso-2H-cromen-6-il)ossi)etil 2-(((3-metil-4-(2,2,2-trifluoroetossi)piridin-2-il)metil)sulfinil)-1H-benzo[d]imidazolo-1 carbossilato] |
| > 10000 | 10.3 | > 10000 | 97.2 | 60.3 | Cc1c(OCC(F)(F)F)ccnc1C[S+]([O-])c1nc2ccccc2n1C(=O)OCCOc1ccc2ccc(=O)oc2c1 (stereo not shown) [Compound A2, 2-((2-Oxo-2H-chromen-7-yl)oxy)ethyl 2-(((3-methyl-4-(2,2,2-trifluoroethoxy)pyridin-2-yl)methyl)sulfinyl)-1H-benzo[d]imidazole-1 carboxylate] |
| > 10000 | 6.4 | > 10000 | 41.6 | 8.9 | Cc1c(OCC(F)(F)F)ccnc1C[S+]([O-])c1nc2ccccc2n1C(=O)OCCCOc1ccc2oc(=O)ccc2c1 (stereo not shown) [Compound A3] |
| > 10000 | 7.7 | > 10000 | 47 | 20.6 | Cc1c(OCC(F)(F)F)ccnc1C[S+]([O-])c1nc2ccccc2n1C(=O)OCCCOc1ccc2ccc(=O)oc2c1 (stereo not shown) [Compound A4] |
| > 10000 | – | > 10000 | 306 | – | O=c1ccc2cc(OCCO)ccc2o1 [Compound G1A, 6-(2-hydroxyethoxy)-2H-chromen-2-one] |
| – | – | > 10000 | 334 | – | O=c1ccc2ccc(OCCO)cc2o1 [Compound G1B, 7-(2-idrossietossi)-2H-cromen-2-one] |

— patent publication US20250099446A1, “HYBRID PHARMACEUTICAL COMPOSITION OBTAINED BY CONJUGATION OF A PROTON PUMP INHIBITOR AND A CARBON ANHYDRASE INHIBITOR” (EXO LAB ITALIA, S.r.l., priority 2022, published 2025)
